In US12577206B2 (BRISTOL-MYERS SQUIBB COMPANY, priority 2020, dated 2026):

Tests used:
human FPR2 = target: T1, human FPR2 (Homo sapiens, UniProt P25090); assay: FPR2 cyclic adenosine monophosphate (cAMP) assay; type: cell-based; conditions: CHO cells overexpressing human FPR2; forskolin 5 μM; inhibition of cAMP production; HTRF; read-out: hFPR2 cAMP2 EC50
T1 sequence (P25090 1-351): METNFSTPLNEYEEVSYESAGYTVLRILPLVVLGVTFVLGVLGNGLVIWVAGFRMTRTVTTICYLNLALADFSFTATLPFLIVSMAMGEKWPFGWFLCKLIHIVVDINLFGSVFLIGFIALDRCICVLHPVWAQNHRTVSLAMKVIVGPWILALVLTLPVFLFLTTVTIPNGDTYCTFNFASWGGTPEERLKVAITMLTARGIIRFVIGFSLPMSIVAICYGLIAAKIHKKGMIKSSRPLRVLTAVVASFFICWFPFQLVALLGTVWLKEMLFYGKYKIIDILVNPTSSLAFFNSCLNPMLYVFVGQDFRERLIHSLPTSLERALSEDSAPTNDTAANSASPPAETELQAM
Outline: (§1)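 Gi-coupled activity is read as suppression of forskolin-stimulated cAMP (10 μM final for FPR1, 5 μM final for FPR2; IBMX 200 μM final) in recombinant CHO cells, 30 min incubation at rt, HTRF detection.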

human FPR1 = target: T2, human FPR1 (Homo sapiens, UniProt P21462); assay: FPR1 cyclic adenosine monophosphate (cAMP) assay; type: cell-based; conditions: CHO cells overexpressing human FPR1; forskolin 10 μM; inhibition of cAMP production; HTRF; read-out: hFPR1 cAMP2 EC50
T2 sequence (P21462 1-350): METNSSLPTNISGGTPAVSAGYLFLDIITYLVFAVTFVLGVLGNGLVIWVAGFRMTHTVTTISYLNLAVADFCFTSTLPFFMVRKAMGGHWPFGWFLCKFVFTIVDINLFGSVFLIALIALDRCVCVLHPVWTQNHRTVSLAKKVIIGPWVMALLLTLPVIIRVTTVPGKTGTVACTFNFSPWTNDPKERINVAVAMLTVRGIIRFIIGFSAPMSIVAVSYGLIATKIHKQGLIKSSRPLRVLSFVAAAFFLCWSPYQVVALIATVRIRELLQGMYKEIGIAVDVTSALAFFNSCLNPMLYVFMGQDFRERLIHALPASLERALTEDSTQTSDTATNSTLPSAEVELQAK
Outline: as §1

| EC50 (human FPR2) | EC50 (human FPR1) | SMILES |
| --- | --- | --- |
| 8 nM | 470 nM | COc1cc(F)c(-c2c(NC(=O)c3ccc(OC(F)F)cc3)c(=O)n(-c3cc(OC(C)C)cc(OCC(C)(C)O)n3)n2C)c(F)c1 [Example 377, N-(5-(2,6-Difluoro-4-methoxyphenyl)-2-(6-(2-hydroxy-2-methylpropoxy)-4-isopropoxypyridin-2-yl)-1-methyl-3-oxo-2,3-dihydro-1H-pyrazol-4-yl)-4-(difluoromethoxy)benzamide] |
| 2 nM | 2300 nM | COc1cc(OCC(O)C(F)(F)F)nc(-n2c(=O)c(NC(=O)c3ccc(OC(F)F)cc3)c(-c3c(F)cc(OC)cc3F)n2C)c1 (centres unmarked) [Example 380, N-(5-(2,6-Difluoro-4-methoxyphenyl)-2-(4-methoxy-6-(3,3,3-trifluoro-2-hydroxypropoxy)pyridin-2-yl)-1-methyl-3-oxo-2,3-dihydro-1H-pyrazol-4-yl)-4-(difluoromethoxy)benzamide] |
| 2 nM | 1900 nM | COc1cc(OC(CO)C(F)(F)F)nc(-n2c(=O)c(NC(=O)c3ccc(OC(F)F)cc3)c(-c3c(F)cc(OC)cc3F)n2C)c1 (centres unmarked) [Example 381, N-(5-(2,6-Difluoro-4-methoxyphenyl)-2-(4-methoxy-6-((1,1,1-trifluoro-3-hydroxypropan-2-yl)oxy)pyridin-2-yl)-1-methyl-3-oxo-2,3-dihydro-1H-pyrazol-4-yl)-4-(difluoromethoxy)benzamide] |
| 8 nM | > 10000 nM | COCC(CO)Oc1cc(OC)cc(-n2c(=O)c(NC(=O)c3ccc(OC(F)F)cc3)c(-c3c(F)cc(OC)cc3F)n2C)n1 (centres unmarked) [Example 382, N-(5-(2,6-Difluoro-4-methoxyphenyl)-2-(6-((1-hydroxy-3-methoxypropan-2-yl)oxy)-4-methoxypyridin-2-yl)-1-methyl-3-oxo-2,3-dihydro-1H-pyrazol-4-yl)-4-(difluoromethoxy)benzamide] |
| 1 nM | 2500 nM | COc1cc(OCC(O)C(F)(F)F)nc(-n2c(=O)c(NC(=O)c3ccc(OC(F)F)cc3)c(-c3c(F)cc(OC)cc3F)n2C)c1 (centres unmarked) [Example 383, N-(5-(2,6-Difluoro-4-methoxyphenyl)-2-(4-methoxy-6-(3,3,3-trifluoro-2-hydroxypropoxy)pyridin-2-yl)-1-methyl-3-oxo-2,3-dihydro-1H-pyrazol-4-yl)-4-(difluoromethoxy)benzamide] |
| 7 nM | > 10000 nM | COc1cc(OCC2(CO)COC2)nc(-n2c(=O)c(NC(=O)c3ccc(OC(F)F)cc3)c(-c3c(F)cc(OC)cc3F)n2C)c1 [Example 384, N-(5-(2,6-Difluoro-4-methoxyphenyl)-2-(6-((3-(hydroxymethyl)oxetan-3-yl)methoxy)-4-methoxypyridin-2-yl)-1-methyl-3-oxo-2,3-dihydro-1H-pyrazol-4-yl)-4-(difluoromethoxy)benzamide] |
| 3 nM | > 10000 nM | COc1cc(OCC(C)(C)F)nc(-n2c(=O)c(NC(=O)c3ccc(OC(F)F)cc3)c(-c3c(F)cc(OC)cc3F)n2C)c1 [Example 385, N-(5-(2,6-Difluoro-4-methoxyphenyl)-2-(6-(2-fluoro-2-methylpropoxy)-4-methoxypyridin-2-yl)-1-methyl-3-oxo-2,3-dihydro-1H-pyrazol-4-yl)-4-(difluoromethoxy)benzamide] |
| 9 nM | > 10000 nM | COCC(CO)Oc1cc(OC)cc(-n2c(=O)c(NC(=O)c3ccc(OC(F)F)cc3)c(-c3c(F)cc(OC)cc3F)n2C)n1 (centres unmarked) [Example 386, N-(5-(2,6-Difluoro-4-methoxyphenyl)-2-(6-((1-hydroxy-3-methoxypropan-2-yl)oxy)-4-methoxypyridin-2-yl)-1-methyl-3-oxo-2,3-dihydro-1H-pyrazol-4-yl)-4-(difluoromethoxy)benzamide] |
| 8 nM | > 10000 nM | COc1cc(OCC(C)(F)F)nc(-n2c(=O)c(NC(=O)c3ccc(OC(F)F)cc3)c(-c3c(F)cc(OC)cc3F)n2C)c1 [Example 387, N-(5-(2,6-Difluoro-4-methoxyphenyl)-2-(6-(2,2-difluoropropoxy)-4-methoxypyridin-2-yl)-1-methyl-3-oxo-2,3-dihydro-1H-pyrazol-4-yl)-4-(difluoromethoxy)benzamide] |
| 4 nM | 3600 nM | COc1cc(F)c(-c2c(NC(=O)c3ccc(OC(F)F)cc3)c(=O)n(-c3ccc(OCCO)cn3)n2C)c(F)c1 [Example 388, N-(5-(2,6-Difluoro-4-methoxyphenyl)-2-(5-(2-hydroxyethoxy)pyridin-2-yl)-1-methyl-3-oxo-2,3-dihydro-1H-pyrazol-4-yl)-4-(difluoromethoxy)benzamide] |
| 6 nM | 4500 nM | COc1cc(OCC(F)(F)F)nc(-n2c(=O)c(NC(=O)c3ccc(OC(F)F)cc3)c(-c3c(F)cc(OC)cc3F)n2C)c1 [Example 389, N-(5-(2,6-Difluoro-4-methoxyphenyl)-2-(4-methoxy-6-(2,2,2-trifluoroethoxy)pyridin-2-yl)-1-methyl-3-oxo-2,3-dihydro-1H-pyrazol-4-yl)-4-(difluoromethoxy)benzamide] |
| 10 nM | 2200 nM | COc1cc(OC(CO)C(F)(F)F)nc(-n2c(=O)c(NC(=O)c3ccc(OC(F)F)cc3)c(-c3c(F)cc(OC)cc3F)n2C)c1 (centres unmarked) [Example 390, N-(5-(2,6-Difluoro-4-methoxyphenyl)-2-(4-methoxy-6-((1,1,1-trifluoro-3-hydroxypropan-2-yl)oxy)pyridin-2-yl)-1-methyl-3-oxo-2,3-dihydro-1H-pyrazol-4-yl)-4-(difluoromethoxy)benzamide] |
| 6 nM | 240 nM | COc1cc(F)c(-c2c(NC(=O)c3ccc(OC(F)F)cc3)c(=O)n(-c3cc(OCC4CCCO4)cc(C)n3)n2C)c(F)c1 (centres unmarked) [Example 391, N-(5-(2,6-Difluoro-4-methoxyphenyl)-1-methyl-2-(6-methyl-4-((tetrahydrofuran-2-yl)methoxy)pyridin-2-yl)-3-oxo-2,3-dihydro-1H-pyrazol-4-yl)-4-(difluoromethoxy)benzamide] |
| 22 nM | 830 nM | COc1cc(F)c(-c2c(NC(=O)c3ccc(OC(F)F)cc3)c(=O)n(-c3cccc(OCC(C)(C)O)n3)n2C)c(F)c1 [Example 392, N-(5-(2,6-Difluoro-4-methoxyphenyl)-2-(6-(2-hydroxy-2-methylpropoxy)pyridin-2-yl)-1-methyl-3-oxo-2,3-dihydro-1H-pyrazol-4-yl)-4-(difluoromethoxy)benzamide] |
| 15 nM | 2800 nM | COc1cc(F)c(-c2c(NC(=O)c3ccc(OC(F)F)cc3)c(=O)n(-c3cc(OCC(C)O)cc(C)n3)n2C)c(F)c1 (centres unmarked) [Example 393, N-(5-(2,6-Difluoro-4-methoxyphenyl)-2-(4-(2-hydroxypropoxy)-6-methylpyridin-2-yl)-1-methyl-3-oxo-2,3-dihydro-1H-pyrazol-4-yl)-4-(difluoromethoxy)benzamide] |
| 5 nM | 740 nM | COc1cc(F)c(-c2c(NC(=O)c3ccc(OC(F)F)cc3)c(=O)n(-c3cc(OCC(C)O)cc(C)n3)n2C)c(F)c1 (centres unmarked) [Example 394, N-(5-(2,6-Difluoro-4-methoxyphenyl)-2-(4-(2-hydroxypropoxy)-6-methylpyridin-2-yl)-1-methyl-3-oxo-2,3-dihydro-1H-pyrazol-4-yl)-4-(difluoromethoxy)benzamide] |
| 61 nM | > 10000 nM | COc1cc(F)c(-c2c(NC(=O)c3ccc(OC(F)F)cc3)c(=O)n(-c3cccn(C)c3=O)n2C)c(F)c1 [Example 395, N-(5-(2,6-Difluoro-4-methoxyphenyl)-1-methyl-2-(1-methyl-2-oxo-1,2-dihydropyridin-3-yl)-3-oxo-2,3-dihydro-1H-pyrazol-4-yl)-4-(difluoromethoxy)benzamide] |
| 2 nM | 300 nM | COc1cc(F)c(-c2c(NC(=O)c3ccc(OC(F)F)cc3)c(=O)n(-c3cc(OCC4CCCO4)cc(C)n3)n2C)c(F)c1 (centres unmarked) [Example 396, N-(5-(2,6-Difluoro-4-methoxyphenyl)-1-methyl-2-(6-methyl-4-((tetrahydrofuran-2-yl)methoxy)pyridin-2-yl)-3-oxo-2,3-dihydro-1H-pyrazol-4-yl)-4-(difluoromethoxy)benzamide] |

| SMILES | EC50 (human FPR2) | EC50 (human FPR1) |
| --- | --- | --- |
| COc1cc(OCCC(C)(C)O)nc(-n2c(=O)c(NC(=O)c3ccc(OC(F)F)cc3)c(-c3c(F)cc(OC)cc3F)n2C)c1 [Example 379, N-(5-(2,6-Difluoro-4-methoxyphenyl)-2-(6-(3-hydroxy-3-methylbutoxy)-4-methoxypyridin-2-yl)-1-methyl-3-oxo-2,3-dihydro-1H-pyrazol-4-yl)-4-(difluoromethoxy)benzamide] | 7 nM | > 10000 nM |
